For assay [1], the system named is human ovarian cancer cells (MDAH2774). Nature of the assay: Protein transfection, immunofluorescent staining / confocal microscopy. Type of assay: cell-based. To be noted: transfected using 20-30 mM HEPES buffer. On the procedure:
Immunofluorescent staining procedure: After protein transfection is completed, the cells in the culture dish were washed three times with phosphate buffered saline (PBS) and fixed with 4% paraformaldehyde for 20 min. The cells were washed again with PBS, perforated with 0.1% Triton X-100 for 5 min, and blocked with 10% BSA for 30 min. For Alexa Fluor 488 anti-mouse IgGs, cells were stained with DAPI for 10 min. For B23, histone 1 or GAPDH antibody transfection, cells were stained with Alexa Fluor 488 or 546 anti-mouse IgG antibodies for 30 min and then stained with DAPI. For rhSTIP1 proteins or Flag-Rev peptides transfection, cells were stained with anti-v5 or anti-flag antibodies, respectively, and then stained with Alexa Fluor 488 anti-mouse IgG and DAPI. All images were detected by confocal microscopes (Leica, Wetzlar, Germany). The fluorescent signals were analyzed and quantified by Q-Win software (Leica, Wetzlar, Germany).
FIG. 1 schematically illustrates the protein transfection procedure. Briefly, the protein of interest and a protein transfection composition, such as HEPES buffer, were mixed and incubated for about 15 min to about 30 min to form a mixture (Panel A). Cells to be transfected were replaced in a minimal essential medium (Panel B). The mixture in Panel A was added to the cells in Panel B and incubated at 37° C. for about 4 to about 24 hours (Panel C). The protein transfection efficiency can be analyzed using immunofluorescent staining or flow cytometry (Panel D).
An in vitro evaluation of the optimal protein transfection condition was performed. According to the steps in FIG. 1. rhSTIP1 was incubated with HEPES buffers of different concentrations (5 or 20 mM) or Opti-MEM (control) at room temperature for about 15 minutes to form the protein mixtures to transfect human ovarian cancer cells. The mixtures were added to the cell culture dish comprising Opti-MEM and incubated at 37° C. for about 4 to about 24 hours.
Different amounts of Alexa Fluor® 488 anti-mouse IgG (0, 2, 4, 8, or 16 μg) were incubated with 20 mM HEPES buffer and mixed with ovarian (MDAH2774) cancer cells in Opti-MEM.
Alexa Fluor 488 anti-mouse IgG antibodies were mixed with 20 mM HEPES to form a mixture. […] Protein transfection efficiency was assessed using confocal fluorescent microscope.
The following proteins were incubated with Opti-MEM (control group) or 20-30 mM HEPES buffer to transfect ovarian cancer cells (MDAH2774 or MOSEC) or endometrial cancer cells: Alexa Fluor 488-conjugated, anti-mouse IgG antibody (about 150 kDa), anti-B23 antibody, anti-histone 1 antibody, anti-STIP1 antibody, rhSTIP1 protein (62.6 kDa), Flag-Rev peptide (<5 kDa) and FITC-Rev peptide (<5 kDa). […] Protein transfection efficiency was assessed by staining the transfected cancer cells with Alexa Fluor 488 or 594 anti-mouse IgG antibodies (for Alexa Fluor 488-conjugated anti-mouse IgG antibody, anti-B23 antibody, anti-histone 1 antibody, anti-STIP1 antibody), v5 antibody (for rhSTIP1), or anti-Flag antibody (for Flag-Rev peptide), and fluorescent signals were analyzed with confocal microscopy.
The protein transfection efficiency of HEPES was compared to other commercial reagents, such as PULsin™, ProteoJuice™, Pro-Ject™, Xfect™, and BioPORTER®. […] The transfected ovarian cancer cells were stained with Alexa Fluor 488 anti-mouse IgG antibodies and protein transfection efficiency was assessed by confocal fluorescent microscopy.

Assay [2] has as its system ovarian (MDAH2774) cancer cells. Description: Protein transfection efficiency by flow cytometry. Particulars: transfected using HEPES buffer (20-30 mM). Type of assay: cell-based, human. On the procedure:
FIG. 1 depicts the method of protein transfection in its simplest form: (A) proteins of interest and a protein transfection composition, such as HEPES buffer, are mixed and incubated for about 15 min to about 30 min (“the first incubation time”) to form a mixture. (B) Cells to be transfected are cultured with a first cultured medium comprising at least about 10% fetal bovine serum for about 24 hours, followed by the replacement of the first cultured medium with a minimal essential medium. (C) The mixture in step (A) is added to the cells in minimal essential medium in Step (B) and incubated at 37° C. for about 4 to about 24 hours (“the second incubation time”). (D) The protein transfection efficiency can be analyzed using various methods, such as immunofluorescent staining and flow cytometry. Flow cytometry: After protein transfection was completed, the cells in the culture dish were washed with PBS, trypsinized and pelleted. The cells were mixed with Fixation/Permeabilization (eBioscience, Inc., San Diego, Calif., USA) working solution and incubated at 4° C. for 30 min to 24 h. […] Cells were suspended in 1×PBS and analyzed by flow cytometry (BD Biosciences, Qume Drive San Jose, Calif., USA). […] The protein transfection efficiency can be analyzed using immunofluorescent staining or flow cytometry (Panel D). […]
A general note: Flow cytometry measures light scatter and fluorescence of single cells or particles in a stream.

Data on 1 substance can be found in US20180221487A1, “NOVEL PROTEIN TRANSFECTION COMPOSITIONS AND USES THEREOF” (Chang Gung Memorial Hospital, Linkou, priority 2017, published 2018).

With “rhSTIP1: v5-tagged recombinant human STIP1 protein (BiP-STIP1-V5-His), 62.6 kDa”, the “fluorescent signal of transfected protein (confocal microscopy)” value in assay [1] was “detected”. Moreover, the “transfection efficiency: signal detected in % of the ovarian cancer cells” value in assay [2] is on record as 99.6%.
